Among the data in the Kinase Knowledgebase extract (Sharma et al. 2016) are IC50 values, retold here.

The structures appear in SMILES notation.

The target of this assay is MAPK14 (human) (UniProt Q16539). In words: Assessment of MAPK14 Kinase Activity.
Chain of MAPK14 (human) (Q16539 whole entry, looked up): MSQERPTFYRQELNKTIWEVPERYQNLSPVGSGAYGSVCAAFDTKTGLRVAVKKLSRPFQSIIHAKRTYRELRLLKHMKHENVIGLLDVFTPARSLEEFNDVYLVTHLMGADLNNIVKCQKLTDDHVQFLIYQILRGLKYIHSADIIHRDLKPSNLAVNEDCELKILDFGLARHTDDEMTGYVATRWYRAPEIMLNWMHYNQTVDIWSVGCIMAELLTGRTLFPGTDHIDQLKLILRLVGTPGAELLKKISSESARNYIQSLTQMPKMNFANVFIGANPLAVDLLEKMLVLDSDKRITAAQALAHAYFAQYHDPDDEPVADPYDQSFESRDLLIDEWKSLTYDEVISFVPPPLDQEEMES

Turning to `Cc1ccc(NC(=O)Nc2cc(C(C)(C)C)sc2C(=O)N2CCN(C)C(=O)C2(C)C)cc1-c1ccc(CN2CCOCC2)nc1`, the 50% inhibitory concentration (IC50) – broadly, the concentration that gives 50% inhibition – was below 100 nM.

Compound `COc1ccc(-c2cc(C)cc(NC(=O)Nc3sc(C(C)(C)C)cc3C(=O)N3CCNC(=O)C3(C)C)c2)cn1` came in with an IC50 below 100 nM.

In turn, `Cc1ccc(NC(=O)Nc2sc(C(C)(C)C)cc2C(=O)N2CCNC(=O)C2(C)C)cc1C#CCN1CCOCC1` returned an IC50 below 100 nM.

Consider `Cc1ccc(NC(=O)Nc2cn(C(C)(C)C)nc2C(=O)N2CCNC(=O)C2(C)C)cc1-c1ccc(CN2CCOCC2)cn1`, for which the half-inhibitory concentration (IC50) is below 100 nM.

Consider `Cc1ccc(NC(=O)Nc2sc(C(C)(C)C)cc2C(=O)N2CCNC(=O)C2(C)C)cc1-c1ccc(OCCCN2CCOCC2)nc1`, for which the IC50 is below 100 nM.

In turn, `Cc1ccc(NC(=O)Nc2sc(C(C)(C)C)cc2C(=O)N2CCN(C)C(=O)C2(C)C)cc1-c1ccc(C(C)O)nc1` (centres undefined) showed an IC50 below 100 nM.

`Cc1ccc(NC(=O)Nc2sc(C(C)(C)C)cc2C(=O)N2CCNC(=O)C2(C)C)cc1-c1ccc(N2CCN(C)CC2)cn1` displayed a concentration for half-maximal inhibition (IC50) below 100 nM.

Consider `CC(C)(C)c1cc(C(=O)N2CCNC(=O)C2(C)C)c(NC(=O)Nc2cccc(-c3cnco3)c2)s1`, for which the IC50 was below 100 nM.

Turning to `COc1ccc(-c2cc(NC(=O)Nc3sc(C(C)(C)C)cc3C(=O)N3CCC(=O)N(C)CC3)ccc2C)cn1`, the IC50 was below 100 nM.

`Cc1ccc(NC(=O)Nc2sc(C(C)(C)C)cc2C(=O)N2CCN(C)C(=O)C2(C)C)cc1-c1ccc(NS(C)(=O)=O)nc1` gave a 50% inhibitory concentration (IC50) below 100 nM.

As for `CCNC(=O)c1ccc(-c2cc(NC(=O)Nc3sc(C(C)(C)C)cc3C(=O)N3CCNC(=O)C3(C)C)ccc2C)cn1`, the 50% inhibitory concentration (IC50) was below 100 nM.

For the compound `Cc1ccc(NC(=O)Nc2cc(C(C)(C)C)sc2C(=O)N2CCN(C(C)C)C(=O)C2(C)C)cc1-c1ccc(CN2CCOCC2)nc1`, the IC50 is below 100 nM.

As to `Cc1ccc(NC(=O)Nc2sc(C(C)(C)C)cc2C(=O)N2CCNC(=O)C2(C)C)cc1-c1cnc(N2CCOCC2)nc1`, the concentration for half-maximal inhibition (IC50) is below 100 nM.

`Cc1ccc(NC(=O)Nc2sc(C(C)(C)C)cc2C(=O)N2CCNC(=O)CC2)cc1-c1cnc(N2CCOCC2)nc1` gave a half-inhibitory concentration (IC50) below 100 nM.

As to `Cc1ccc(NC(=O)Nc2cn(C(C)(C)C)nc2C(=O)N2CCN(C)C(=O)C2(C)C)cc1-c1ccc(N2CCOCC2)cn1`, the IC50 is below 100 nM.

For the compound `Cc1ccc(NC(=O)Nc2sc(C(C)(C)C)cc2C(=O)N2CCNC(=O)C2(C)C)cc1-c1ccc(C(C)O)nc1` (centres undefined), the IC50 is below 100 nM.

Turning to `CCNC(=O)c1ccc(-c2cc(NC(=O)Nc3cn(C(C)(C)C)nc3C(=O)N3CCN(C)C(=O)C3(C)C)ccc2C)cn1`, the IC50 was below 100 nM.

The compound `Cc1ccc(NC(=O)Nc2sc(C(C)(C)C)cc2C(=O)N2CCNC(=O)C2(C)C)cc1-c1cc[n+]([O-])cc1` showed an IC50 below 100 nM.

On to `COc1ccc(-c2cc(NC(=O)Nc3sc(C(C)(C)C)cc3C(=O)N3CCNC(=O)C3(C)C)ccc2C)nc1`, for which the 50% inhibitory concentration (IC50) is below 100 nM.

On to `Cc1ccc(NC(=O)Nc2sc(C(C)(C)C)cc2C(=O)N2CCNC(=O)C2(C)C)cc1-c1ccc(N2CCCCC2)nc1`, for which the IC50 was below 100 nM.

`CCc1ccc(-c2cc(NC(=O)Nc3sc(C(C)(C)C)cc3C(=O)N3CCNC(=O)C3(C)C)ccc2C)cn1` gave a half-inhibitory concentration (IC50) below 100 nM.

Consider `Cc1ccc(NC(=O)Nc2sc(C(C)(C)C)cc2C(=O)N2CCN(C)C(=O)C2(C)C)cc1-c1ccc(C[N+]2([O-])CCOCC2)nc1`, for which the IC50 is below 100 nM.

Turning to `CCc1ccc(-c2cc(NC(=O)Nc3cc(C(C)(C)C)sc3C(=O)N3CCN(C)C(=O)C3(C)C)ccc2C)cn1`, the half-inhibitory concentration (IC50) is below 100 nM.

Take `CCc1ccc(-c2cc(NC(=O)Nc3sc(C(C)(C)C)cc3C(=O)N3CCN(CCN(C)C)C(=O)C3(C)C)ccc2C)cn1`: the IC50 was in the range of 100 to 1000 nM.

The compound `COc1ccc(-c2ccc(C)c(NC(=O)Nc3sc(C(C)(C)C)cc3C(=O)N3CCNC(=O)C3(C)C)c2)cn1` had a half-inhibitory concentration (IC50) below 100 nM.

`Cc1ccc(-c2ccc(N3CCOCC3)cn2)cc1NC(=O)Nc1cc(C(C)(C)C)sc1C(=O)N1CCNC(=O)C1(C)C`: the IC50 was below 100 nM.

With `Cc1ccc(NC(=O)Nc2sc(C(C)(C)C)cc2C(=O)N2CCN(C)C(=O)C2(C)C)cc1N1C(=O)CN(C)C1=O`, the 50% inhibitory concentration (IC50) was below 100 nM.

With `Cc1ccc(NC(=O)Nc2sc(C(C)(C)C)cc2C(=O)N2CCNC(=O)C2(C)C)cc1-c1cccnc1`, the IC50 is below 100 nM.

As for `Cc1ccc(NC(=O)Nc2sc(C(C)(C)C)cc2C(=O)N2CCN(C)C(=O)C2(C)C)cc1-c1cnc(NCC(O)CO)nc1` (centres undefined), the concentration for half-maximal inhibition (IC50) was below 100 nM.

With `COc1ccc(-c2cc(NC(=O)Nc3sc(C(C)(C)C)cc3C(=O)N3CCNC(=O)C3(C)C)ccc2C)cn1`, the IC50 is below 100 nM.

Turning to `CCc1ccc(-c2cc(NC(=O)Nc3cn(C(C)(C)C)nc3C(=O)N3CCNC(=O)C3(C)C)ccc2C)cn1`, the IC50 is below 100 nM.

As to `Cc1ccc(NC(=O)Nc2sc(C(C)(C)C)cc2C(=O)N2CCNC(=O)C2(C)C)cc1-c1ccc(C(C)C)nc1`, the 50% inhibitory concentration (IC50) is below 100 nM.

`CCNC(=O)c1ccc(-c2cc(NC(=O)Nc3cc(C(C)(C)C)sc3C(=O)N3CCN(C)C(=O)C3(C)C)ccc2C)cn1` registered an IC50 below 100 nM.

The compound `Cc1ccc(NC(=O)Nc2sc(C(C)(C)C)cc2C(=O)N2CCNC(=O)C2(C)C)cc1-c1ccc(NCC(O)CO)nc1` (centres undefined) returned an IC50 below 100 nM.

For `Cc1ccc(NC(=O)Nc2cn(C(C)(C)C)nc2C(=O)N2CCNC(=O)C2(C)C)cc1-c1ccc(CN2CCOCC2)nc1`, the IC50 is below 100 nM.

Consider `CC(C)(C)c1cc(C(=O)N2CCNC(=O)C2(C)C)c(NC(=O)Nc2cccc(-c3ccc(OCCN4CCOCC4)nc3)c2)s1`, for which the half-maximal inhibitory concentration (IC50) is below 100 nM.

`CCc1ccc(-c2cc(NC(=O)Nc3sc(C(C)(C)C)cc3C(=O)N3CCN(C)C(=O)C3(C)C)ccc2C)nc1` returned a half-maximal inhibitory concentration (IC50) below 100 nM.

Consider `Cc1nnc(-c2ccc(-c3cc(NC(=O)Nc4sc(C(C)(C)C)cc4C(=O)N4CCN(C)C(=O)C4(C)C)ccc3C)cn2)o1`, for which the concentration for half-maximal inhibition (IC50) was below 100 nM.

On to `Cc1ccc(NC(=O)Nc2sc(C(C)(C)C)cc2C(=O)N2CCN(CCN(C)C)C(=O)C2(C)C)cc1-c1cccnc1`, for which the IC50 is below 100 nM.

On to `Cc1ccc(NC(=O)Nc2sc(C(C)(C)C)cc2C(=O)N2CCNC(=O)C2(C)C)cc1C#C[Si](C)(C)C`, for which the IC50 is below 100 nM.

As for `CC(=O)N1CCN(C(=O)c2cc(C(C)(C)C)sc2NC(=O)Nc2ccc(C)c(-c3cccnc3)c2)CC1`, the concentration for half-maximal inhibition (IC50) was below 100 nM.

As to `Cc1ccc(NC(=O)Nc2sc(C(C)(C)C)cc2C(=O)N2CCNC(=O)C2(C)C)cc1-c1ccc(NCC(C)C)nc1`, the concentration for half-maximal inhibition (IC50) is below 100 nM.

`CN(C)CCCOc1ccc(-c2cccc(NC(=O)Nc3sc(C(C)(C)C)cc3C(=O)N3CCNC(=O)C3(C)C)c2)cn1` had an IC50 below 100 nM.

On to `Cc1ccc(NC(=O)Nc2sc(C(C)(C)C)cc2C(=O)N2CCN(C)C(=O)C2(C)C)cc1-c1ccc(N2CCN(C)CC2)nc1`, for which the half-inhibitory concentration (IC50) is below 100 nM.

With `Cc1ccc(NC(=O)Nc2sc(C(C)(C)C)cc2C(=O)N2CCNC(=O)C2(C)C)cc1-c1ccc(C(=O)N(C)C)nc1`, the 50% inhibitory concentration (IC50) was below 100 nM.

`Cc1ccc(NC(=O)Nc2sc(C(C)(C)C)cc2C(=O)N2CCN(C)C(=O)C2(C)C)cc1-c1ccc(OC(C)C)nc1` showed an IC50 below 100 nM.

In turn, `Cc1ccc(NC(=O)Nc2sc(C(C)(C)C)cc2C(=O)N2CCNC(=O)C2(C)C)cc1-c1ccc(OCCN2CCCCC2)nc1` had an IC50 below 100 nM.

As to `Cc1ccc(NC(=O)Nc2sc(C(C)(C)C)cc2C(=O)N2CCN(C)C(=O)C2(C)C)cc1-c1ccc(CN2CCOCC2)cn1`, the IC50 was below 100 nM.

As for `Cc1ccc(-c2cc(NC(=O)Nc3sc(C(C)(C)C)cc3C(=O)N3CCNC(=O)C3(C)C)ccc2C)nn1`, the half-maximal inhibitory concentration (IC50) was below 100 nM.
